In PubChem BioAssay AID540271 (Broad Institute, 2011):
Activity calls are given as the source filed them. The rule behind the calls is not given here.

Test system: S. cerevisiae expressing PfHSP40, growth rescue, plate reader
Test: S cerevisiae expressing PfHSP40, growth rescue, cherry pick dose confirmatory, plate reader (AID 540271);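 note: yeast growth read after three days of incubation at 30 °C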

Row | Compound | AC50
1 | CCN1/C(=C/c2sc(-c3ccccc3C)c[n+]2C)Sc2ccccc21 | 5.83 µM
2 | Nc1nonc1C(=O)NCCN=Cc1cc(Cc2ccccc2)cc(Br)c1O | 0.642 µM
3 | CC(CNC(=O)COc1ccccc1)OC(=O)Nc1ccc(Cl)c(Cl)c1 (configuration not stated) | 6.12 µM
4 | Cc1ccc(CCNc2ncnc(Cl)c2N)cc1 | 4.48 µM
5 | CC1CC(C)CC(C)C(O)C(C#N)=CC=CCC(C2CCCC2C(=O)O)OC(=O)CC(O)C(C)C1 (configuration not stated) | 5.14 µM
6 | COc1cccc(/C=N/Nc2ncnc3scc(-c4ccccc4)c23)c1O | 1.7 µM
7 | CC(C)C(=O)NC(c1cccc([N+](=O)[O-])c1)c1ccc2cccnc2c1O (configuration not stated) | 1.27 µM
8 | Cc1cccc2sc(NNC(=O)c3ccc(S(=O)(=O)N4CCCC(C)C4)cc3)nc12 (configuration not stated) | 2.81 µM
9 | COC(=O)c1cccc2c1-c1ccccc1/C2=N/O | 4.95 µM
10 | COc1ccc2c(c1)OC[C@H]1[C@H]2N2C(=O)c3cc(C)ccc3NC(=O)[C@@]2(C)[C@H]1c1ccccc1 | 6.11 µM
11 | CN(C)c1ccc(C=c2c3ccccc3n3c2cc(-c2ccc(Cl)cc2)[n+]3C)cc1 | 7.4 µM
12 | O=C1c2ccccc2NC(c2ccc(-c3ccc(C(F)(F)F)cc3)o2)N1O (configuration not stated) | 2.4 µM
13 | Clc1ccc(OCc2nc(-c3ccncc3)no2)c(Br)c1 | 6.2 µM
14 | C=CCOC(Cn1ccnc1)c1ccc(Cl)cc1Cl (configuration not stated) | 1.89 µM
15 | O=c1c2ccccc2c(-c2ccc(O)cc2)nn1-c1cccc(C(F)(F)F)c1 | 3.92 µM
16 | CCCCNc1c(-c2cccc(-c3ccc(OC)cc3)c2)nc2ccc(C)cn12 | 5.67 µM
17 | COc1cccc(/C=N/NC(=O)c2cc(-c3cccn3C)n[nH]2)c1O | 10.2 µM
18 | O=C(OCC(=O)C12CC3CC(CC(C3)C1)C2)c1ccc(O)cc1 | 1.69 µM
19 | FC(F)(F)c1cccc(N2CCc3cn[nH]c32)c1 | 0.446 µM
20 | COC(OC)c1ccc(C#N)c(SCc2ccccc2)n1 | 7.52 µM
21 | CCC(C)Sc1cccc(-c2nc3ccccn3c2NCc2ccccc2)c1 (configuration not stated) | 7.22 µM
22 | C=CCNc1nc(-c2ccccn2)nnc1-c1ccccc1 | 10.3 µM

Row | Compound | AC50
23 | Cc1[nH]n(-c2ccccc2)c(=O)c1/C=N/Nc1nncc(-c2ccccc2)n1 | 7.15 µM
24 | Oc1ccccc1-c1cc(-c2ccc3c(c2)OCCO3)n[nH]1 | 5.24 µM
25 | Cc1ccc(C)c(/C=C/C(=O)c2ccccc(=O)c2O)c1 | 3.17 µM
26 | Clc1cccc(N/N=C(\Cc2nc3ccccc3[nH]2)c2ccccc2)c1 | 9.04 µM
27 | COc1ccc(S(=O)(=O)N(C(=O)c2ccncc2)c2ccc(OC(=O)c3ccncc3)cc2)cc1 | 4.46 µM
28 | Cc1nc2ccc(C(C(F)(F)F)(C(F)(F)F)C(F)(F)F)cc2[nH]1 | 3.2 µM
29 | O=C(Nc1cccc(-c2nc3ccccc3s2)c1)c1cccs1 | 5.98 µM
30 | Cc1cc(C)c(OCC(=O)Nc2nc(-c3ccccn3)cs2)c(C)c1 | 4.34 µM
31 | CCCCCCCCCCCCCC(=O)NO | 0.727 µM
32 | COc1ccc2[nH]c(=O)c(CN(Cc3cccnc3)C(=O)Nc3ccccc3)cc2c1 | 6.16 µM
33 | CCOc1cc([N+](=O)[O-])cc(/C=N/NC(=O)c2c(-c3ccccc3)noc2C)c1O | 4.9 µM
34 | CC(C)N1CCN(c2ccc(OC[C@H]3CO[C@](Cn4cncn4)(c4ccc(Cl)cc4Cl)O3)cc2)CC1 | 2 µM
35 | Cc1ccccc1OCC(O)Cn1c2ccccc2c2ccccc21 (configuration not stated) | 4.74 µM
36 | CCCCC(CC)c1nnc(NC(=O)c2cccs2)s1 (configuration not stated) | 6.66 µM
37 | COc1ccc2oc(=O)c(-c3csc(Nc4cccc(O)c4)n3)cc2c1 | 4.91 µM
38 | COc1cc(NS(=O)(=O)c2ccc(C)cc2)c2ncccc2c1 | 5.4 µM
39 | CCOC(=O)c1cccc2c1-c1ccccc1/C2=N/O | 6.3 µM
40 | Oc1c(Br)cc(-c2ccccc2)cc1Br | 4.93 µM
41 | O=C(O)c1ccccc1NC(c1ccccc1)c1ccc2cccnc2c1O (configuration not stated) | 2.19 µM
42 | Cc1cc(C)c2sc(NNC(=O)c3ccc(S(=O)(=O)N4CCc5ccccc5C4)cc3)nc2c1 | 1.48 µM
43 | CCCCC(=O)NC(c1ccco1)c1cc(Cl)c2cccnc2c1O (configuration not stated) | 2 µM
44 | COc1ccc(NC(=O)/C(Cl)=C(/Cl)S(=O)(=O)Cc2ccc(C)cc2)cn1 | 4.67 µM

Row | Compound | AC50
45 | CC1=C(C)/C(=N\OS(=O)(=O)c2ccc(C)cc2)C=CC1=O | 5 µM
46 | CCOC(=O)c1c(C)oc2c1C(=O)c1ccccc1C2=O | 6.76 µM
47 | COc1cc([N+](=O)[O-])cc(/C=N/NC(=O)c2cncc(Br)c2)c1O | 4.36 µM
48 | Oc1c(I)cc(Cl)c2cccnc12 | 0.629 µM
49 | CCCOc1ccc(S(=O)(=O)n2cc(F)c(=O)[nH]c2=O)cc1 | 3.66 µM
50 | O=C(c1ccc(-c2ccccc2)cc1)C1CCCN(C(=O)c2cncs2)C1 (configuration not stated) | 5.93 µM
51 | Cc1cc(/C=C2\SC(=S)NC2=O)c(C)n1-c1cccc(O)c1 | 9.83 µM
52 | Cc1ccc(COc2ccc(Br)cc2/C=N/O)cc1 | 7.92 µM
53 | COc1ccc2c(c1)S/C(=C\C(=O)c1ccncc1)N2C | 5.21 µM
54 | CC1(S(=O)(=O)O)CC(=O)c2ccccc2C1=O (configuration not stated) | > 12 µM (inactive)
55 | Cc1cc(Nc2ccccc2)nn1C(=O)c1ccccc1 | 5.94 µM
56 | O=c1cnn([C@@H]2O[C@H](CO)[C@@H](O)[C@H]2O)c(=O)[nH]1 | > 12 µM (inactive)
57 | COc1cccc(/C=N/NC(=O)c2nc(-c3ccccc3)cc(-c3ccccc3)n2)c1O | 3.51 µM
58 | COc1ccc2c(n1)Sc1nc3ccccc3nc1N2 | 1.35 µM
59 | C(=N\Nc1nncc2ccccc12)/c1ccccn1 | 4.74 µM
60 | CCCCNc1c(-c2ccc(-c3ccc(OC)cc3)c(OC)c2)nc2ccccn12 | 5.48 µM
61 | CCC1=NN(C(=O)c2cccc(Br)c2)C(O)(c2ccc(Br)cc2)C1 (configuration not stated) | 5.92 µM
62 | Clc1cccc(CON/C=N/c2ncnc3sccc23)c1 | 3.74 µM
63 | CC(C)=CCc1c(O)ccc(C(=O)Cc2ccccc2)c1O | 10.8 µM
64 | CCOC(=O)c1ccc(NC(=O)CC2OCCN(CC)C2=O)cc1 (configuration not stated) | 4.89 µM
65 | Cc1nc(SCc2ccc(OCCC(C)C)cc2)n[nH]1 | 3.08 µM
66 | CC1(C(=O)OCC(=O)Nc2ccc3ccccc3c2)CC1(Cl)Cl (configuration not stated) | 9.6 µM

Row | Compound | AC50
67 | O=C(O)c1ccccc1NS(=O)(=O)c1cccc(-n2sc3ccccc3c2=O)c1 | 4.78 µM
68 | Oc1ccc(N=Nc2ccc3c(c2)OCCO3)c2cccnc12 | 1.85 µM
69 | CC(/C=N/n1c(COc2ccccc2)n[nH]c1=S)=C\c1ccccc1 | 4.55 µM
70 | CCCCCCn1c(=O)c(C(=O)Nc2ncccc2C)c(O)c2ccccc21 | 3.03 µM
71 | O=c1[nH]cc(F)c(=O)[nH]1 | 0.562 µM
72 | COc1cc2cnc(-c3ccccc3)c(C(=O)c3ccc(F)cc3)c2cc1OC | 4.57 µM
73 | O=C1c2ccccc2NC(c2ccc(-c3ccc(F)cc3)o2)N1O (configuration not stated) | 8.42 µM
74 | N#Cc1c(-c2ccc(Cl)cc2)n(O)c2ccccc12 | 2.67 µM
75 | O=S1OC(c2ccccc2)c2cc(Cl)ccc21 (configuration not stated) | 10.8 µM
76 | O=C(NCc1ccncc1)c1ccccc1Nc1ccc(SC(F)F)cc1 | 5.31 µM
77 | C=CCN(CC=C)C(=S)NC(=O)c1ccc(C)c(Br)c1 | 6.72 µM
78 | N=c1c2c(-c3ccccc3)c(-c3ccccc3)n(Cc3ccco3)c2ncn1CCCn1ccnc1 | > 12 µM (inactive)
79 | O=C(CSc1nc2ccccc2s1)N/N=C/c1cc([N+](=O)[O-])ccc1O | 5.52 µM
80 | CC1=CC(C)(C)N(S(=O)(=O)c2ccc(C)cc2)c2ccc(C)cc21 | 7.54 µM
81 | CCC(=O)NC(c1cc(Cl)c2cccnc2c1O)C(C)C (configuration not stated) | 5.29 µM
82 | CCc1cc(C(=O)Nc2nc(-c3ccccn3)cs2)sc1C | 4.3 µM
83 | Cc1ccc(C(=O)C(SC(C)(C)C)n2cncn2)cc1 (configuration not stated) | 5.78 µM
84 | COc1ccc(O)c(C(=O)CC(=O)c2ccccc2C)c1 | 6.31 µM
85 | O=[N+]([O-])c1ccc(-c2nc(-c3cccs3)c(-c3cccs3)[nH]2)cc1 | 4.2 µM
86 | O=C(NC(=S)N(CCc1ccccc1)CCc1ccccc1)c1ccco1 | 5.34 µM
87 | CCCn1nc(C(=O)N2CCN(S(=O)(=O)c3ccc(C)c(C)c3)CC2)c2ccccc2c1=O | 6.13 µM
88 | CC(C)NC(=O)NC(=O)COC(=O)c1ccc([N+](=O)[O-])cc1Cl | 12 µM

Row | Compound | AC50
89 | Oc1ccc(Br)cc1/C=N/Nc1ccccn1 | 5.39 µM
90 | CC(C)CNC(=O)COC(=O)c1ccc([N+](=O)[O-])cc1Cl | > 12 µM (inactive)
91 | Clc1nc(-c2ccccn2)nc2scc(-c3ccccc3)c12 | 5.78 µM
92 | Cc1ccc(Sc2ccc(NC(=O)CCl)cc2)cc1C | 4.54 µM
93 | CC(C)N1CCN(c2ccc(OCC3COC(Cn4cncn4)(c4ccc(Cl)cc4Cl)O3)cc2)CC1 (configuration not stated) | 2.01 µM
94 | Cc1ccc(NC(=O)c2cc(N3C(=O)C=CC3=O)ccc2Cl)cc1C | 1.63 µM
95 | CCCOc1ccc(C(=O)NNC(=S)NC(=O)CC)cc1 | 6.95 µM
96 | COc1cccc2c1C(=O)c1c(O)c3c(c(O)c1C2=O)C[C@@](O)(C(=O)CO)C[C@@H]3O[C@H]1C[C@H](N)[C@H](O)[C@H](C)O1 | 6.48 µM
97 | O=C1C(=C(I)I)c2ccccc2-c2ccccc21 | 5.61 µM
98 | Cc1ccccc1Oc1nc(-c2ccccn2)nc2ccccc12 | 2.29 µM
99 | Oc1cccc2ccc(Nc3ccccn3)nc12 | 4.98 µM
100 | O=C1c2ccccc2-n2c1nc1ccccc1c2=O | 1.83 µM
101 | O=Nc1c(O)c2ccccc2c2ccccc12 | 0.902 µM
102 | O=C(C1=C(Nc2ccccc2)c2ccccc2S(=O)(=O)N1)c1ccccc1 | 5.09 µM
103 | COc1ccc2c(c1)OC[C@H]1[C@H]2N2C(=O)c3cc(Cl)ccc3NC(=O)[C@@]2(C)[C@H]1c1ccccc1 | 4.63 µM
104 | COc1cccc(/C=N/Nc2ncc(C(F)(F)F)cc2Cl)c1O | 1.49 µM
105 | OCCN(CCO)c1cc2c3ccccc3ccc2c2ccccc12 | 5.56 µM
106 | CC(NC(=S)NC1CCC(C(C)(C)C)CC1)c1ccccc1 (configuration not stated) | 6.86 µM
107 | Cc1ccc(C(C)(C)C)cc1S(=O)(=O)Nc1ncnc2sccc12 | 2.83 µM
